Common to all, as to format: cell-based
The target in experiment [1] is T1, ALK protein in H3122 (EML4-ALK) cells (Homo sapiens, UniProt Q9UM73).
T1 construct: EML4 (Echinoderm microtubule-associated protein-like 4, Q9HC35) fusion partner, variant 1; host or cells: NCI-H3122 lung adenocarcinoma cells; the other entry of the earlier key: EML4 (Q9HC35, Echinoderm microtubule-associated protein-like 4)
Briefly: Western blot of ALK protein level (degradation, DC50), ALK phosphorylation and downstream signaling in H3122 cells. Particulars: ALK protein degradation in H3122 cells. (In general: Immunoblotting shows a protein as a band on a membrane.)

Experiment [2] has as its target T2, ALK protein in SR (NPM-ALK) cells (Homo sapiens, UniProt Q9UM73).
T2 construct: NPM (nucleophosmin, NPM1, P06748) fusion partner; host or cells: SR (ALCL) cells; the other entry of the earlier key: NPM1 (P06748, Nucleophosmin)
In words: Western blot of ALK protein level (degradation, DC50), ALK phosphorylation and downstream signaling in SR cells.

In experiment [3] the test system is SR (NPM-ALK) cells. In words: Growth inhibition IC50 in ALCL SR cells (CCK8/WST, 72 hours). Particulars: 72 h, SR cells, WST; Brigatinib-based PROTAD molecules (Table 3).
Description: SR (NPM-ALK) and NCI-H2228 (EML4-ALK, V3) cells were purchased from ATCC. […] All Cells were cultured in RPMI1640 medium with 10% FBS and Penicillin-Streptomycin in 37° C. incubator with 5% CO2.
Cells were seeded at specific density in 96 well plates one day before treatment. […] Viable cells were measured via CCK8 reagent and IC50s were calculated via Prism Graphad. Experiments were repeated at least three times.
[4] abbreviates: ALK protein degradation in SR cells.

T2 sequence (Q9UM73 with tags, fused parts or gaps): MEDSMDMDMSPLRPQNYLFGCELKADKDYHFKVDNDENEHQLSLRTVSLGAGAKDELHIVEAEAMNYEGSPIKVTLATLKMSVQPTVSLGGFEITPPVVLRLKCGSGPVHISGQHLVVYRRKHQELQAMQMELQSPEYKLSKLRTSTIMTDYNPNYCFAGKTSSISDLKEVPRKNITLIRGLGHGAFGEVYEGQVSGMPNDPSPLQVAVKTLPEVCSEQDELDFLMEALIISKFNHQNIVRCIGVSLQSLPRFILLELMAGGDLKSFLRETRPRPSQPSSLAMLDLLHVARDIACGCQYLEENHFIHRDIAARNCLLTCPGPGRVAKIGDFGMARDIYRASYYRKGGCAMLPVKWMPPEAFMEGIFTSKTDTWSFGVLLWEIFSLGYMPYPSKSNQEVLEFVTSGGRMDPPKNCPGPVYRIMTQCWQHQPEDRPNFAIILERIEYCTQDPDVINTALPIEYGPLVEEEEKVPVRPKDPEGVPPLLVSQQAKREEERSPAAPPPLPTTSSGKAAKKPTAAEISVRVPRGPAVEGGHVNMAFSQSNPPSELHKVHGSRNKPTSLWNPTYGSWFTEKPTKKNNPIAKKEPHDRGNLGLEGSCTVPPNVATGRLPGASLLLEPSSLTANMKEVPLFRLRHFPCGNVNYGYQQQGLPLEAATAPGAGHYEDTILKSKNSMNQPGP
T1 sequence (Q9UM73 with tags, fused parts or gaps): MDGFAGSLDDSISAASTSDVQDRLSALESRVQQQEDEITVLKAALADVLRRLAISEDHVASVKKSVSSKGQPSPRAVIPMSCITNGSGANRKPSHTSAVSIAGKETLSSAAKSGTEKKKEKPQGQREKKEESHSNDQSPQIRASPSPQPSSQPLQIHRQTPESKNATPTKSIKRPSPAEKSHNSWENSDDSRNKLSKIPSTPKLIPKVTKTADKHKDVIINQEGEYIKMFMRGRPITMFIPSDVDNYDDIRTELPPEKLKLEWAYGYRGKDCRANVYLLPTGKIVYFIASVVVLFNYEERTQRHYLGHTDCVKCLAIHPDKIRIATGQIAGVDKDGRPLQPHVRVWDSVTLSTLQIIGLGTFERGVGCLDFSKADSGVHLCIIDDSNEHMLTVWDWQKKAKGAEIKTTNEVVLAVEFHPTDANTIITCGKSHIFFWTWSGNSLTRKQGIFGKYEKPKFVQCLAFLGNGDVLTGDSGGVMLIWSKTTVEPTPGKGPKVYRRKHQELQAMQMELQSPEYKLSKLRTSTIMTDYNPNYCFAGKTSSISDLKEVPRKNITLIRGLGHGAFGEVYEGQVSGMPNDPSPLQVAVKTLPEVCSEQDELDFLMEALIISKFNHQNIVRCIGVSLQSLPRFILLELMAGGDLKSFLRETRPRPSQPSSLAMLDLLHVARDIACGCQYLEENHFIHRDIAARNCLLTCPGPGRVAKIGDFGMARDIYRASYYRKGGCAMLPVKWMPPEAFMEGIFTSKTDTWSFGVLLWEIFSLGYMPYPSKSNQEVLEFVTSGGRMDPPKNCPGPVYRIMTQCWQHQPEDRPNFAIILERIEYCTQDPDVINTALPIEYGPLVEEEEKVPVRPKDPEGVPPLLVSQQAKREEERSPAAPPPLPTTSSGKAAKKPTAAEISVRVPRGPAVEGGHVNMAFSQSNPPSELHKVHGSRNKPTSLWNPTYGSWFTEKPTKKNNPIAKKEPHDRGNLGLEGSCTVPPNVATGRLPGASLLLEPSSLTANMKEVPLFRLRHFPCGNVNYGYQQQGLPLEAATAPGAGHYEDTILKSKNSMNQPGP

One may read the IC50 as the concentration that gives 50% inhibition. Low values mean greater potency, high ones weaker potency. As to `COc1cc(N2CCC(N)CC2)ccc1Nc1ncc(Cl)c(Nc2ccccc2P(C)(C)=O)n1` [Brigatinib Analogue B(SIAIS151101), (2-((2-((4-(4-aminopiperidin-1-yl)-2-methoxyphenyl)amino)-5-chloropyrimidin-4-yl)amino)phenyl)dimethylphosphine oxide], in experiment [1], the “DC50 (nM)) in H3122” value is on record as “Not degrade”. Also, in experiment [2] (setting [4]), the “DC50 (nM) in SR” value was “Not degrade”. Also, the IC50 in experiment [3] is 1.7 ± 1.4 nM.
For `COc1cc(N2CCC(N3CCNCC3)CC2)ccc1Nc1ncc(Cl)c(Nc2ccccc2P(C)(C)=O)n1` [Brigatinib Analogue C(SIAIS164005), (2-((5-chloro-2-((2-methoxy-4-(4-(piperazin-1-yl)piperidin-1-yl)phenyl)amino)pyrimidin-4-yl)amino)phenyl)dimethylphosphine oxide], the “DC50 (nM)) in H3122” value in experiment [1] is “Not degrade”. Also, the “DC50 (nM) in SR” value in experiment [2] (setting [4]) was “Not degrade”. Moreover, the ALK protein degradation entry in experiment [2] (SR cells, western blot, 16 hours, up to 500 nM) was “did not degrade ALK protein”. The half-maximal inhibitory concentration (IC50) in experiment [3] amounted to 6.7 ± 3.1 nM.
A word on the DC50: it is the concentration at which degradation of the target reaches its halfway point. A low value points to a more potent degrader. For the molecule `COc1cc(N2CCC(NC(=O)CCCCCCNc3cccc4c3C(=O)N(C3CCC(=O)NC3=O)C4=O)CC2)ccc1Nc1ncc(Cl)c(Nc2ccccc2P(C)(C)=O)n1` (centres unmarked) [SIAIS151123, N-(1-(4-((5-chloro-4-((2-(dimethylphosphoryl)phenyl)amino)pyrimidin-2-yl)amino)-3-methoxyphenyl)piperidin-4-yl)-7-((2-(2,6-dioxopiperidin-3-yl)-1,3-dioxoisoindolin-4-yl)amino)heptanamide], the DC50 in experiment [1] was 1 to 50 nM; in experiment [2] (setting [4]), 0.1 to 2 nM. In addition, in experiment [3], the half-inhibitory concentration (IC50) was 1.9 ± 1.5 nM.
In the case of `COc1cc(N2CCN(C(=O)CCOCCOCCOCCC(=O)N[C@H](C(=O)N3C[C@H](O)C[C@H]3C(=O)NCc3ccc(-c4scnc4C)cc3)C(C)(C)C)CC2)ccc1Nc1ncc(Cl)c(Nc2ccccc2P(C)(C)=O)n1` [SIAIS1197081, (2S,4R)-1-((S)-2-(tert-butyl)-16-(4-(4-((5-chloro-4-((2-(dimethylphosphoryl)phenyl)amino)pyrimidin-2-yl)amino)-3-methoxyphenyl)piperazin-1-yl)-4,16-dioxo-7,10,13-trioxa-3-azahexadecanoyl)-4-hydroxy-N-(4-(4-methylthiazol-5-yl)benzyl)pyrrolidine-2-carboxamide], in experiment [1], the DC50 fell in the range of 50 to 500 nM. 32.5 ± 19.8 nM corresponded to half-maximal inhibition in experiment [3] (IC50).
In the case of `COc1cc(N2CCN(C(=O)CCOCCOCCOCCOCCC(=O)N[C@H](C(=O)N3C[C@H](O)C[C@H]3C(=O)NCc3ccc(-c4scnc4C)cc3)C(C)(C)C)CC2)ccc1Nc1ncc(Cl)c(Nc2ccccc2P(C)(C)=O)n1` [SIAIS1197083, (2S,4R)-1-((S)-2-(tert-butyl)-19-(4-(4-((5-chloro-4-((2-(dimethylphosphoryl)phenyl)amino)pyrimidin-2-yl)amino)-3-methoxyphenyl)piperazin-1-yl)-4,19-dioxo-7,10,13,16-tetraoxa-3-azanonadecanoyl)-4-hydroxy-N-(4-(4-methylthiazol-5-yl)benzyl)pyrrolidine-2-carboxamide], the DC50 in experiment [1] is 50 to 500 nM. The molecule further returned an IC50 in experiment [3] of 49.9 ± 30.8 nM.
The corresponding values for `COc1cc(N2CCN(C(=O)CCOCCOCCOCCOCCOCCC(=O)N[C@H](C(=O)N3C[C@H](O)C[C@H]3C(=O)NCc3ccc(-c4scnc4C)cc3)C(C)(C)C)CC2)ccc1Nc1ncc(Cl)c(Nc2ccccc2P(C)(C)=O)n1` [SIAIS1197085, (2S,4R)-1-((S)-2-(tert-butyl)-22-(4-(4-((5-chloro-4-((2-(dimethylphosphoryl)phenyl)amino)pyrimidin-2-yl)amino)-3-methoxyphenyl)piperazin-1-yl)-4,22-dioxo-7,10,13,16,19-pentaoxa-3-azadocosanoyl)-4-hydroxy-N-(4-(4-methylthiazol-5-yl)benzyl)pyrrolidine-2-carboxamide] are 20 to 100 nM and 62.5 ± 39.2 nM.
On the same counts, the results for `COc1cc(N2CCN(C(=O)COCCOCC(=O)N[C@H](C(=O)N3C[C@H](O)C[C@H]3C(=O)NCc3ccc(-c4scnc4C)cc3)C(C)(C)C)CC2)ccc1Nc1ncc(Cl)c(Nc2ccccc2P(C)(C)=O)n1` [SIAIS1197087, (2S,4R)-1-((S)-2-(2-(2-(2-(4-(4-((5-chloro-4-((2-(dimethylphosphoryl)phenyl)amino)pyrimidin-2-yl)amino)-3-methoxyphenyl)piperazin-1-yl)-2-oxoethoxy)ethoxy)acetamido)-3,3-dimethylbutanoyl)-4-hydroxy-N-(4-(4-methylthiazol-5-yl)benzyl)pyrrolidine-2-carboxamide] are 50 to 500 nM and 10.6 ± 2.4 nM.
The corresponding values for `COc1cc(N2CCN(C(=O)CCC(=O)N[C@H](C(=O)N3C[C@H](O)C[C@H]3C(=O)NCc3ccc(-c4scnc4C)cc3)C(C)(C)C)CC2)ccc1Nc1ncc(Cl)c(Nc2ccccc2P(C)(C)=O)n1` [SIAIS1197145, (2S,4R)-1-((S)-2-(4-(4-(4-((5-chloro-4-((2-(dimethylphosphoryl)phenyl)amino)pyrimidin-2-yl)amino)-3-methoxyphenyl)piperazin-1-yl)-4-oxobutanamido)-3,3-dimethylbutanoyl)-4-hydroxy-N-(4-(4-methylthiazol-5-yl)benzyl)pyrrolidine-2-carboxamide] are 1 to 50 nM and 8.5 ± 5.6 nM.
The molecule `COc1cc(N2CCN(C(=O)CCCC(=O)N[C@H](C(=O)N3C[C@H](O)C[C@H]3C(=O)NCc3ccc(-c4scnc4C)cc3)C(C)(C)C)CC2)ccc1Nc1ncc(Cl)c(Nc2ccccc2P(C)(C)=O)n1` [SIAIS1197147, (2S,4R)-1-((S)-2-(5-(4-(4-((5-chloro-4-((2-(dimethylphosphoryl)phenyl)amino)pyrimidin-2-yl)amino)-3-methoxyphenyl)piperazin-1-yl)-5-oxopentanamido)-3,3-dimethylbutanoyl)-4-hydroxy-N-(4-(4-methylthiazol-5-yl)benzyl)pyrrolidine-2-carboxamide] returned a DC50 in experiment [1] of 20 to 100 nM. Besides, the midpoint of inhibition in experiment [3], the IC50, lay at 14.2 ± 8.2 nM.
On the same counts, the results for `COc1cc(N2CCN(C(=O)CCCCC(=O)N[C@H](C(=O)N3C[C@H](O)C[C@H]3C(=O)NCc3ccc(-c4scnc4C)cc3)C(C)(C)C)CC2)ccc1Nc1ncc(Cl)c(Nc2ccccc2P(C)(C)=O)n1` [SIAIS1197149, (2S,4R)-1-((S)-2-(6-(4-(4-((5-chloro-4-((2-(dimethylphosphoryl)phenyl)amino)pyrimidin-2-yl)amino)-3-methoxyphenyl)piperazin-1-yl)-6-oxohexanamido)-3,3-dimethylbutanoyl)-4-hydroxy-N-(4-(4-methylthiazol-5-yl)benzyl)pyrrolidine-2-carboxamide] are 20 to 100 nM and 8.2 ± 3.9 nM.
The corresponding values for `COc1cc(N2CCN(C(=O)CCCCCC(=O)N[C@H](C(=O)N3C[C@H](O)C[C@H]3C(=O)NCc3ccc(-c4scnc4C)cc3)C(C)(C)C)CC2)ccc1Nc1ncc(Cl)c(Nc2ccccc2P(C)(C)=O)n1` [SIAIS1197151, (2S,4R)-1-((S)-2-(7-(4-(4-((5-chloro-4-((2-(dimethylphosphoryl)phenyl)amino)pyrimidin-2-yl)amino)-3-methoxyphenyl)piperazin-1-yl)-7-oxoheptanamido)-3,3-dimethylbutanoyl)-4-hydroxy-N-(4-(4-methylthiazol-5-yl)benzyl)pyrrolidine-2-carboxamide] are 20 to 100 nM and 16.7 ± 7.3 nM.

(Values after patent publication US11771709B2, “ALK protein degradation agent and anti-tumor application thereof” (ShanghaiTech University, priority 2017, dated 2023).)
